Laboratory results taken from ChEMBL document CHEMBL4387773, “Identification of potent, selective and orally bioavailable phenyl ((R)-3-phenylpyrrolidin-3-yl)sulfone analogues as RORγt inverse agonists” (Bioorg Med Chem Lett, 2019).

Tests used:
[1] = target: T1, Nuclear receptor ROR-alpha (Homo sapiens, UniProt P35398); experiment: Inverse agonist activity at human Gal4-fused RORalpha LBD (272 to 556 residues) expressed in human Jurkat cells measured after 18 hrs by steady-glo luciferase reporter gene assay; type: cell-based
T1 sequence (P35398 whole entry): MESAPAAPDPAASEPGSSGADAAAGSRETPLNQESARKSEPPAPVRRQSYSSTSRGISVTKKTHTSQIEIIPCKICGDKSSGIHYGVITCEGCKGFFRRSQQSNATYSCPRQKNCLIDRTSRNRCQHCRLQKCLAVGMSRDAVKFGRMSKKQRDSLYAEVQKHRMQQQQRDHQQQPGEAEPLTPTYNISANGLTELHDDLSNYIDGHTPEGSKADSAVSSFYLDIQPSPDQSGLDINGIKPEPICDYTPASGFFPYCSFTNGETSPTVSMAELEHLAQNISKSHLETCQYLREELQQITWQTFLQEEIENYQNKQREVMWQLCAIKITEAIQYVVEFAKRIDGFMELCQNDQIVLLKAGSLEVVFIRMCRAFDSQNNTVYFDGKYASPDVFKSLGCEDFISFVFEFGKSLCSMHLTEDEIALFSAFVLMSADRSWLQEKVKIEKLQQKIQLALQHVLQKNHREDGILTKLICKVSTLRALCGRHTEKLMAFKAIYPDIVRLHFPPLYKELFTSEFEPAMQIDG

[2] = target: T2, Nuclear receptor ROR-beta (Homo sapiens, UniProt Q92753); experiment: Inverse agonist activity at human Gal4-fused RORbeta LBD (200 to 559 residues) expressed in human Jurkat cells measured after 18 hrs by steady-glo luciferase reporter gene assay; type: cell-based
T2 sequence (Q92753 whole entry): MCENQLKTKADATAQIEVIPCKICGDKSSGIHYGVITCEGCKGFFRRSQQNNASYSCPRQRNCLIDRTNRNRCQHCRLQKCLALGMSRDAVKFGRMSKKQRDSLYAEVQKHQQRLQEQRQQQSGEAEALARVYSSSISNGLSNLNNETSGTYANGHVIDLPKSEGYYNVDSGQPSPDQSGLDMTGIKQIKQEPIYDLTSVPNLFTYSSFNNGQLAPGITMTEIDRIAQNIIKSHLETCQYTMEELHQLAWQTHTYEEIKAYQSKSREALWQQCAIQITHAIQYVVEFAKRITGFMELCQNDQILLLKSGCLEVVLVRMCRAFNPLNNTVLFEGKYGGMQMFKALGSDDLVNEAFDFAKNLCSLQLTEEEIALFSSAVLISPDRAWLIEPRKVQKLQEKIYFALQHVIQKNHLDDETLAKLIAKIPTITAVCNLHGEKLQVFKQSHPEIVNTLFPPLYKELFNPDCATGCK

[3] = Half life in rat liver microsomes; type: ADME, Microsome
Cytochrome P450 1A2 = target: T3, Cytochrome P450 1A2 (Homo sapiens, UniProt P05177); experiment: Inhibition of CYP1A2 (unknown origin); type: ADME
T3 sequence (P05177 whole entry): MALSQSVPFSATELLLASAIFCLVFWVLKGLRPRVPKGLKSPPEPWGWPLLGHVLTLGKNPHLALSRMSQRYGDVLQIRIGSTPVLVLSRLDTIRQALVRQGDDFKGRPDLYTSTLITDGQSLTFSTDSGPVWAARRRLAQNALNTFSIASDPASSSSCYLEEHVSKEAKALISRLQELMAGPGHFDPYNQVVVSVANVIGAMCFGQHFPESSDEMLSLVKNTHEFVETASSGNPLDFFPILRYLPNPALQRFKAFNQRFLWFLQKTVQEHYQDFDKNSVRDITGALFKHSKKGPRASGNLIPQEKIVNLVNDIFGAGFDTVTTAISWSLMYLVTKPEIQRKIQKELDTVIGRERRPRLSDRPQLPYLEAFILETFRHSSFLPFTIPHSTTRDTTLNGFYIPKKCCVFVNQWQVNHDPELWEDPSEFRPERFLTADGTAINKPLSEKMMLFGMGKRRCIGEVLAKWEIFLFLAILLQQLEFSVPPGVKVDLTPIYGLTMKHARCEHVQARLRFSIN

Cytochrome P450 2B6 = target: T4, Cytochrome P450 2B6 (Homo sapiens, UniProt P20813); experiment: Inhibition of CYP2B6 (unknown origin); type: ADME
T4 sequence (P20813 whole entry): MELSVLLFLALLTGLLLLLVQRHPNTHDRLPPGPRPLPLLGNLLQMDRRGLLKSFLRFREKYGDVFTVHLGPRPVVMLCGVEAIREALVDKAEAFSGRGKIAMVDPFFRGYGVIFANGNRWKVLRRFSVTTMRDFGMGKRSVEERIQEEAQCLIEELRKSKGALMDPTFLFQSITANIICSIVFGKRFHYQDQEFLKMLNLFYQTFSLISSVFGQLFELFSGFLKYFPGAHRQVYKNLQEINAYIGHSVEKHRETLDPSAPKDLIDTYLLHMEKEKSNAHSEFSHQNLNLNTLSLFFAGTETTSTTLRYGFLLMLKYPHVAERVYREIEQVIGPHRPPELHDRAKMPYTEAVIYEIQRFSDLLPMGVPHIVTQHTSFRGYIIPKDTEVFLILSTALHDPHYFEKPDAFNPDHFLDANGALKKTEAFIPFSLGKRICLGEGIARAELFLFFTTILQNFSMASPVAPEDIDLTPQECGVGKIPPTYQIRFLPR

[4] = AUC in Balb/c mouse at 10 mg/kg, po; type: ADME, organism-based; conditions: in vivo

| EC50 [1] [µM] | EC50 [2] [µM] | half-life [3] [h] | IC50 (Cytochrome P450 1A2) [µM] | IC50 (Cytochrome P450 2B6) [µM] | AUC [4] [µM·h] | SMILES |
| --- | --- | --- | --- | --- | --- | --- |
| > 40 | > 40 | > 2 | > 10 | > 10 | 24 | O=C(O)C12CCC(C(=O)N3CC[C@](c4ccc(C(F)(C(F)(F)F)C(F)(F)F)cc4)(S(=O)(=O)c4ccc(F)cc4)C3)(CC1)CC2 |
| > 40 | > 40 | > 2 | > 10 | > 10 | 16.6 | CC[C@]1(C(=O)N2CC[C@](c3ccc(C(F)(C(F)(F)F)C(F)(F)F)cc3)(S(=O)(=O)c3ccc(F)cc3)C2)CC[C@H](C(=O)O)CC1 |
